Solubility data for one molecule are collected here from patent US8471041B2 (priority 2010, dated 2013).

A short description of data set [1]: physchem. Particulars: water.
A short description of data set [2]: physchem. To be noted: organic solvent or mixture.

≈ marks a conversion by molar mass, not a printed value.

As for `O=C(CBr)N1CC([N+](=O)[O-])([N+](=O)[O-])C1` [ABDNAZ, N-(bromoacetyl)-3,3-dinitroazetidine], the solubility (as a rule, the concentration that dissolves in the medium under given conditions) in “physchem [1]” was 0.3 to 1.3 mg/mL (≈ 1.12 to 4.85 mM); in the data set “physchem [2]”, roughly 30 mg/mL (≈ 112 mM).
